Like-named read-outs stand apart in the source and are kept apart here.
Legend:
Mushroom tyrosinase = Mushroom tyrosinase inhibition, colorimetric detection of dopachrome from L-tyrosine; type: biochemical; conditions: for inhibitory activity on tyrosinase: in vitro, FIG. 1, FIG. 2 and peptide screen; for IC50 (result in words): L-tyrosine substrate, pH 6.8, 37° C., absorbance at 475 nm 30 min after initiation
Procedure: Mushroom tyrosinase, L-tyrosine and other chemicals for the enzymatic reaction were obtained from Sigma-Aldrich. […] All synthetic peptides were between 3 and 10 amino acids in length and were synthesized using tBoc and/or Fmoc solid phase chemistry.
Inhibition of tyrosinase by experimental peptides was determined by colorimetric detection of dopachrome, the reaction product of the substrate L-tyrosine. Mushroom tyrosinase, L-tyrosine, and a potassium phosphate buffer (pH 6.8) were added to 96-well plates containing short sequence peptides dissolved in 5% DMSO and incubated at 37° C. The absorbance at 475 nm was measured using a BIO-TEK plate reader 30 min after reaction initiation. Each experiment was performed in triplicate on 3 separate occasions. The protocol is described in further detail in Piao et al., “Mushroom Tyrosinase Inhibition Activity of Some Chromones,” Chem. Pharm. Bull. […]: 309-311 (2002), and in Pomerants, J. Biol. Chem. 238:2351-2357 (1963).
Enzyme kinetics were calculated using the Michaelis-Menton equation by observing changes in reaction velocity accompanying substrate concentrations of 0.5, 1, 2, and 4 mM L-tyrosine. Once initial reaction velocities were obtained, Lineweaver-Burke plots were created to calculate Km, Vmax, and to determine the mode of enzymatic inhibition.
Tyrosinase inhibition activity was determined in vitro using L-tyrosine as substrate with a modified method from Piao L Z, Park H R, Park Y K, Lee S K, Park J H, Park M K. 2002. Mushroom Tyrosinase Inhibition Activity of Some Chromones. Chem. Pharm Bull 50(3): 309-311.
The concentration of enzyme, substrate and inhibitor was denoted as [E], [S] and […], respectively. 80 microliters of 0.067 M potassium phosphate buffer (pH 6.8), 40 microliters of L-tyrosine in 0.067 M potassium phosphate buffer (pH 6.8), 40 microliters of inhibitor in 5% DMSO solution, and 40 microliters of mushroom tyrosinase solution were added to a 96-well microplate, to make the final concentration of each reagent to be: 0.2 mg/ml [S], and 96 units/ml [E], with varying [I]. 5% DMSO solution instead of an inhibitor solution was added to a blank solution and adjusted to the total volume of 200 microliters as control. The assay mixture was incubated at 37° C. The amount of dopachrome produced in the reaction mixture was measured at 475 nm in a microplate reader at different time periods. The percentage of inhibition of tyrosinase activity was calculated as follows: Inhibition(%)=[(A−B)−C−D)]/(A−B)×100 • A: absorbance of blank solution after incubation • B: absorbance of blank solution before incubation • C: absorbance of sample solution after incubation • D: absorbance of sample solution before incubation

Cellular tyrosinase = target: T1, Cellular tyrosinase (Homo sapiens, UniProt P14679); experiment: Cellular tyrosinase activity using L-DOPA as the substrate; type: cell-based; conditions: for reduction of cellular tyrosinase activity: 7 d treatment of melanocytes
T1 construct: endogenous in cells; host or cells: primary human melanocytes, passage 3
T1 sequence (P14679 19-529): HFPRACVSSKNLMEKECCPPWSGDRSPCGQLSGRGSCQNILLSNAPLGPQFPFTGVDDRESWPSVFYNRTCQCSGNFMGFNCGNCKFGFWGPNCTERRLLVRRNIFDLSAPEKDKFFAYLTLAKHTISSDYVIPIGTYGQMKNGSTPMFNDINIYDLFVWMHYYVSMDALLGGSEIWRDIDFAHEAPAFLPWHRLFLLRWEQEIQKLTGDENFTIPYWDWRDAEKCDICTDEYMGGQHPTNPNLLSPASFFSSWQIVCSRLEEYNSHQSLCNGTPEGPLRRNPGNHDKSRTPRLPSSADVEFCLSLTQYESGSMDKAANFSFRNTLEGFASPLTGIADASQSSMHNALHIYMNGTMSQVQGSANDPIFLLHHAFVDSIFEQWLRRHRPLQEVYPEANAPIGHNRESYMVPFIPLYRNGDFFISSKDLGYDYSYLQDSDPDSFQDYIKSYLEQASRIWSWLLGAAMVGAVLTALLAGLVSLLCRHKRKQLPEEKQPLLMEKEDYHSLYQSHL
Procedure: Cellular tyrosinase activity using L-DOPA as the substrate was assayed by the method of Cheng K T, Hsu F L, Chen S H, Hsieh P K, Huang H S, Lee C K, Lee M H. 2007. […] Chem. Pharm Bull 55(5): 757-761.
Human melanocytes were cultured in 6-well plates. After treatment with individual test samples for 7 d, the cells were washed with phosphate-buffered saline (PBS) and lysed with phosphate buffer, pH 6.8, containing 1% Triton X-100. After sonication, lysates were clarified by centrifugation at 10000 g for 10 min. After determination of protein content with a Bio-Rad protein assay kit, lysates were added to 96 well culture plate containing equal amounts of protein (40 μg), and adjusted with lysis buffer to reach 150 μl in each well. 75 μl of 10 mM L-DOPA dissolved in lysis buffer was added to each well. The culture plate was incubated at 37° C. for 30 min, and then read with the spectrophotometer at 475 nm.
Tyrosinase inhibitory activity was calculated with the following formula: tyrosinase inhibition (%)=[1−(O.D.475 of sample/O.D.475 of control)]×100%.
After centrifugation and protein calculation, certain volume of supernatant for each sample was transferred to 96 well culture plate by compensating a certain protein content in each well, and adjusted the volume of each well to 150 μl with 0.067 M of phosphate buffer (pH 6.8). 75 μl of 10 mM L-DOPA dissolved in phosphate buffer (pH 6.8) was added to each well. The culture plate was incubated at 37° C. for 30 min, and then read with the spectrophotometer at 475 nm.

Human melanocytes = experiment: Melanin content measurement in melanocytes; type: cell-based; conditions: FIG. 4; for melanin content: 10 μM (YR peptide: similar concentration), 7 days
Procedure: Human melanocytes were cultured in 6-well plates and treated with individual test samples for 7 d. After washes in PBS, cells were detached by short incubation in trypsin/EDTA (0.25%/0.1% in PBS). An aliquot was used for cell count. The remaining cells were sonicated and incubated overnight in 500 μl 1 M NaOH at 37° C., avoid light. Melanin concentrations were calculated by comparison of the OD at 475 nm of unknown samples with a standard curve obtained with synthetic melanin.
To provide more direct evidence that the YR peptide inhibits melanogenesis, we determined its effects on melanin production in melanocytes. The contents of melanin in melanocytes treated with no addition, YR peptide (P4) or HQ for 7 days were determined with spectrophotometer and compared with melanin standard curve.

[1] = tested on: Primary human melanocytes; conditions: for effect on melanocyte proliferation rates: FIG. 3
Procedure: Primary human melanocytes, passage 3, were kindly obtained from Dr. Todd Ridky in the department of dermatology, Stanford University. Cells were cultured in Medium 254 (Cascade Biologics) supplemented with Human Melanocyte Growth Supplement (HMGS, Cascade Biologics). They were grown in a humidified atmosphere with 5% CO2 at 37° C. Cell plating densities were arranged that those cells were in log phase of growth for the duration of incubation with test samples. Subcultures of cells were plated at a density of 4×10^4 cells/cm^2. Approximately 24 h later, fresh medium and test samples were added. Cells were harvested 7 d after test samples addition, replaced with fresh medium and test samples every two days.
Cell viability was determined using WST-1 Cell Proliferation Kit (Roche). Cells were plated at 1×10^5/well (24-well plates). Twenty-four hours after plating, test samples were added and cultures were incubated for an additional 7 d. At the end of the treatment period, 50 μl WST-1 was added to each well. The plates were placed at 37° C. for 4 h in the dark and the absorbance at 450 nm was read using microplate. Usually, 3 replicate wells were measured for each group to be tested. Wells containing medium but no cells served as controls. Cell viability was calculated according to the equation: cell viability=absorbance(sample tested)/absorbance(medium only)×100%.
The concentrations of HQ tested on melanocytes were 1, 10, 100, and 1000 μM, while those of YR peptide were 1, 10, and 100 μM.

tyrosinase = conditions: read-out: published IC50; literature value; cited from earlier work

Row | Compound | inhibitory activity on tyrosinase (Mushroom tyrosinase) | reduction of cellular tyrosinase activity (Cellular tyrosinase; 10 μM) [%] | melanin content (Human melanocytes) | IC50 (result in words) (Mushroom tyrosinase) | further results
1 | YRSRKYSSWY | had inhibitory activity on tyrosinase | 24.1 | significantly reduced melanin content, to a greater extent than HQ |  | reduction of cellular tyrosinase activity (Cellular tyrosinase; 1 μM): 14.5%; reduction of cellular tyrosinase activity (Cellular tyrosinase; 100 μM): 37.4%; inhibition of tyrosinase activity, in words (Cellular tyrosinase; FIG. 5, after incubation of melanocytes): comparable to that of HQ; melanin synthesis in human melanocytes (Human melanocytes): inhibited melanin synthesis; effect on melanocyte proliferation rates ([1]; 1, 10 and 100 μM, listed as P4): did not observe any inhibitory effects; effect on melanocyte proliferation rates ([1]; 1, 10 and 100 μM, listed as YR peptide): did not inhibit cell proliferation; toxicity to melanocytes ([1]; up to 100 μM, treatment for 7 days): No toxicity was observed
2 | Oc1ccc(O)cc1 [HQ, Hydroquinone, reference compound] |  | 28.8 | slightly reduced melanin content |  | IC50 (tyrosinase): ~700 µM; effect on melanocyte proliferation rates ([1]; up to 10 μM): did not show inhibitory effects
3 | KFEKKFEK | had inhibiting activity |  |  |  | 
4 | KFEFKFEF | only the former peptide had inhibiting activity |  |  | no effect | 
5 | VLLK [control peptide; inner standard in stability testing] | only the YR peptide had inhibitory activity |  |  | no effect | 
